Data published in patent US20260240683A1, “MOLECULAR LINKERS” (CWAN TECHNOLOGIES PTY LTD, priority 2023, published 2026).

What was measured:
[1] = Riboflavin solubility at 0.1% in PBS; type: physicochemical
[2] = Diffusion into thermally gelled 12% gelatin gel disc (A452 read-out), model corneal stroma; type: physicochemical
Procedure: A 12% Gelatin (Sigma G1890) Type A, 300 Bloom solution was prepared in PBS (pH7.4) by melting at 50° C. 60 μL was added to an 8.5 mm (diameter)×1 mm (deep) round Teflon mould. The Gelatin was allowed to set thermally for 10 min at 18.5° C. At 10 min, 60 μL 0.5 mM Ru(bpy)3 (0.5 mM solution in PBS) is added to the top of the thermally gelled 12% gelatin disc. The gelatin disc was covered with foil during diffusion time. Excess solution was blotted from the top of the gel using a Kimwipe. Remove gelled disc using spatula, add to 940 μL of PBS @55° C. Melt gel (30 sec)—add solution to cuvette, read A452.
If diffusion is expressed as a percentage of the total disc volume equilibrated with the applied 0.5 mM Ru(bpy)3 solution, then, assuming total mixing of the applied 60 μL solution with the 60 μL gelatin disc, 100% diffusion would represent an A452 of 0.205 [0.221−0.016=gelatin−PBS blank)]. So, diffusion to 30% of the hydrogel depth/thickness (in this case representing ca. 300 μm) would be attained in about 2.3 min. This is the desired depth of penetration of a crosslinking agent in the human cornea (by comparison with Riboflavin-based CXL methods, which require 30 minutes of diffusion).

[3] = Ru(bpy)3 diffusion through debrided bovine cadaver corneal stroma; type: in vitro ADME; settings: PBS solution containing 0.5 mM Ru(bpy)3; 800 μm thick bovine cadaver corneal stroma; within 6 minutes
Procedure: 10 fresh bull eyes were obtained from an abattoir (<10 hours old, stored at 4° C.). Using a digital caliper, the thickness of the corneas was determined to be within the range of 740 μm to 820 μm. The epithelium of the eyes was debrided with an 8 mm biopsy punch and scraped-off with a scalpel blade.
[…] Excess Ru(bpy)3 solution was removed by blotting using a fresh Kimwipe tissue.
Corneas were frozen on the surface of an aluminium block at −20° C. for 2 minutes (FIG. 7B). Transverse (bisecting) cross-sections of cornea were prepared by cutting a 1 mm thick section using a razor blade. The corneal cross-section was mounted on a glass slide to allow visualization of the cross-sectional area of the corneal stroma (FIG. 7C). Ru(bpy)3 was visualized through a red filter with illumination with a 450 nm LED light (FIG. 7).
The rate of diffusion of Ru(bpy)3 through both fresh bovine cadaver corneal stroma and through a thermally gelled 12% gelatin hydrogel (as a model corneal stromal matrix), was studied.

[4] = Photochemical crosslinking of corneal stroma using 3D template mould; parameters: species or system bovine; settings: 300 μL, 10 min diffusion, 20 sec 450 nm blue LED at 1 cm; 1 mM Ru(bpy)3 with or without 50 mM SPS
Procedure: The entire epithelium was debrided from a cornea. 300 μL of 1 mM Ru(bpy)3+50 mM SPS was applied to the anterior corneal surface for a diffusion time of 10 minutes (FIG. 9A). The cornea was wrapped over a metal piping nozzle, acting as a mould, and irradiated for 20 seconds using 450 nm blue LED dental lamp at a distance of 1 cm from the light guide tip (FIG. 9B).
A cornea was subject to the crosslinking protocol described in Example 3A, except that sodium persulphate (SPS) was omitted. […] In its absence, singlet oxygen radical production by short (20 sec) blue light irradiation of Ru(bpy)3 in aqueous solution is insufficient to cause any measurable covalent crosslinking of endogenous stromal proteins. In contrast, in its presence, crosslinking of endogenous corneal proteins and “molecular linkers” occurs rapidly and quantitatively.

[5] = Diffusion of Ru(bpy)3+SPS and photochemical crosslinking of 1 mm 12% gelatin hydrogel (weight after 65° C. melt); type: physicochemical
Procedure: Method: 12% Gelatin (Sigma G1890) Type A 300 Bloom in PBS (pH 7.4), was melted at 50° C. and 60 μL added to an 8.5 mm (diameter) disc×1 mm (deep) Teflon mould. The gelatin was allowed to set thermally for 10 min at 18.5° C. 60 μL of Ru(bpy)3/SPS solution (either a 0.5 mM Ru(bpy)3+50 mM SPS; a 1.0 mM Ru(bpy)3+50 mM SPS or a 2.0 mM Ru(bpy)3+50 mM SPS) was added and allowed to diffuse into the gel disc for varying times (0, 2, 4, 6, 8, 10, 14 min). Excess liquid was blotted from the top surface of the mould. At the end point of the diffusion period, the thermally set gelatin hydrogel was illuminated using a 3M ESPE blue LED lamp (1,200 mW/cm^2) for 5 sec at 1 cm distance from the light guide tip. The crosslinked gelatin hydrogel was weighed on a microbalance before being placed into a 65° C. water bath for 30 sec. Excess liquid was removed from the crosslinked hydrogel and it was again weighed to measure residual crosslinked gelatin hydrogel. A plot was prepared showing % crosslinked gelatin vs diffusion time (zero to 14 min).
Aim: To determine the time required for a solution containing Ru(bpy)3+SPS to diffuse through a 1 mm thick sheet of thermally-gelled gelatin and then to form covalent crosslinks between gelatin molecules, thus rendering the hydrogel resistant to subsequent melting at high temperature. […]

Row | rate of diffusion through 12% gelatin hydrogel compared with 0.5 mM Ru(bpy)3 solution ([2]; Riboflavin 0.1% (2.6 mM)) | depth of free diffusion through corneal stroma [3] [μm] | time to diffuse through the entire 1.0 mm thickness of 12% (w/v) gelatin hydrogel ([5]; Ru(bpy)3+50 mM SPS solutions (0.5, 1.0, 2.0 mM)) [min] | time to diffuse to 30% of the hydrogel depth/thickness (ca. 300 μm) ([2]; 0.5 mM Ru(bpy)3 in PBS, 60 μL on 1 mm deep 12% gelatin disc) | Structure (SMILES) | solubility at 0.1% (2.6 mM) ([1]; PBS (pH 7.4)) | solubility at 0.1% (2.6 mM) ([1]; PBS with NaOH added, pH ca. 8.5, RT) | formation of templated 3D structure of cornea after photo-crosslinking on mould [4] | covalent crosslinking of gelatin hydrogel after the diffusion step ([5]; Ru(bpy)3+SPS, 5 second illumination with 450 nm blue LED lamp)
1 | slightly slower |  |  |  | Cc1cc2nc3c(=O)[nH]c(=O)nc-3n(C[C@H](O)[C@H](O)[C@H](O)CO)c2cc1C [Riboflavin, riboflavin] | =2.6 mM in PBS (pH 7.4) - not fully soluble in PBS* | *Added 1 μL of 10N NaOH to 2 ml of 0.1% solution in PBS - took pH to ca. 8.5 (by pH paper test). Riboflavin solution was now fully soluble at 0.1% (2.6 mM) at RT. |  | 
2 |  | 400 | ≤ 6 | about 2.3 min | [Cl-].[Cl-].[Ru+2].c1ccc(-c2ccccn2)nc1.c1ccc(-c2ccccn2)nc1.c1ccc(-c2ccccn2)nc1 [Ru(bpy)3, ruthenium (tris)bipyridyl chloride] |  |  | no mould template structure was formed | entire gelatin hydrogel can be covalently crosslinked
